ChEMBL document CHEMBL1142215, “Site-specific reduction of oxidative and lipid metabolism in adipose tissue of 3'-azido-3'-deoxythymidine-treated rats” (2007)
Calls of active or inactive are those of the source. No cut-off for these calls is given here.

Experiments:
Rattus norvegicus [1] = assay: Effect on LDL cholesterol level in lean Wistar rat at 70 mg/kg/day relative to control; type: functional
[2] = molecular target: Fatty acid synthase (Rattus norvegicus) (UniProt P12785); assay: Decrease in fatty acid synthase activity in lean Wistar rat epididymal adipose tissue assessed at 70 mg/kg/day by DNA quantification assay; type: organism-based
Rattus norvegicus [3] = assay: Decrease in cytochrome c oxidase activity in cafteria-fed Wistar rat inguinal adipose tissue at 70 mg/kg/day by DNA quantification assay; type: organism-based
Rattus norvegicus [4] = assay: Effect on HDL cholesterol level in lean Wistar rat at 70 mg/kg/day relative to control; type: functional
Rattus norvegicus [5] = assay: Decrease in cytochrome c oxidase activity in lean Wistar rat inguinal adipose tissue at 70 mg/kg/day by DNA quantification assay; type: organism-based
Rattus norvegicus [6] = assay: Increase in triglyceride level in lean Wistar rat at 70 mg/kg/day relative to control; type: functional
[7] = molecular target: Fatty acid synthase (Rattus norvegicus) (UniProt P12785); assay: Decrease in fatty acid synthase activity in Wistar cafteria-fed rat inguinal adipose tissue at 70 mg/kg/day by DNA quantification assay; type: organism-based
Rattus norvegicus [8] = assay: Effect on HDL cholesterol level in cafteria-fed Wistar rat at 70 mg/kg/day relative to control; type: functional
[9] = molecular target: Fatty acid synthase (Rattus norvegicus) (UniProt P12785); assay: Decrease in fatty acid synthase activity in Wistar cafteria-fed rat epididymal adipose tissue at 70 mg/kg/day by DNA quantification assay; type: organism-based
Rattus norvegicus [10] = assay: Increase in cellularity in cafteria-fed Wistar rat inguinal tissue assessed as DNA content at 70 mg/kg/day; type: functional
Rattus norvegicus [11] = assay: Increase in AMPK phosphorylation level in rat inguinal adipose cells at 70 mg/kg/day; type: organism-based
Rattus norvegicus [12] = assay: Effect on AMPK phosphorylation level in rat epididymal adipose cell at 70 mg/kg/day; type: organism-based
[13] = molecular target: Fatty acid synthase (Rattus norvegicus) (UniProt P12785); assay: Decrease in fatty acid synthase activity in lean Wistar rat inguinal adipose tissue assessed at 70 mg/kg/day by DNA quantification assay; type: organism-based
Rattus norvegicus [14] = assay: Effect on LDL cholesterol level in cafteria-fed Wistar rat at 70 mg/kg/day relative to control; type: functional
Rattus norvegicus [15] = assay: Decrease in inguinal adipocyte size in cafteria-fed Wistar rat at 70 mg/kg/day; type: functional
Rattus norvegicus [16] = assay: Increase in triglyceride level in cafteria-fed Wistar rat at 70 mg/kg/day relative to control; type: functional
Rattus norvegicus [17] = assay: Increase in body weight in cafteria-fed Wistar rat at 70 mg/kg/day after 4 weeks; type: functional
Rattus norvegicus [18] = assay: Decrease in epididymal adipocyte size in cafteria-fed Wistar rat at 70 mg/kg/day; type: functional, organism-based
Rattus norvegicus [19] = assay: Increase in body weight in lean Wistar rat at 70 mg/kg/day after 4 weeks; type: functional

Fatty acid synthase (Rattus norvegicus), sequence (P12785 whole entry): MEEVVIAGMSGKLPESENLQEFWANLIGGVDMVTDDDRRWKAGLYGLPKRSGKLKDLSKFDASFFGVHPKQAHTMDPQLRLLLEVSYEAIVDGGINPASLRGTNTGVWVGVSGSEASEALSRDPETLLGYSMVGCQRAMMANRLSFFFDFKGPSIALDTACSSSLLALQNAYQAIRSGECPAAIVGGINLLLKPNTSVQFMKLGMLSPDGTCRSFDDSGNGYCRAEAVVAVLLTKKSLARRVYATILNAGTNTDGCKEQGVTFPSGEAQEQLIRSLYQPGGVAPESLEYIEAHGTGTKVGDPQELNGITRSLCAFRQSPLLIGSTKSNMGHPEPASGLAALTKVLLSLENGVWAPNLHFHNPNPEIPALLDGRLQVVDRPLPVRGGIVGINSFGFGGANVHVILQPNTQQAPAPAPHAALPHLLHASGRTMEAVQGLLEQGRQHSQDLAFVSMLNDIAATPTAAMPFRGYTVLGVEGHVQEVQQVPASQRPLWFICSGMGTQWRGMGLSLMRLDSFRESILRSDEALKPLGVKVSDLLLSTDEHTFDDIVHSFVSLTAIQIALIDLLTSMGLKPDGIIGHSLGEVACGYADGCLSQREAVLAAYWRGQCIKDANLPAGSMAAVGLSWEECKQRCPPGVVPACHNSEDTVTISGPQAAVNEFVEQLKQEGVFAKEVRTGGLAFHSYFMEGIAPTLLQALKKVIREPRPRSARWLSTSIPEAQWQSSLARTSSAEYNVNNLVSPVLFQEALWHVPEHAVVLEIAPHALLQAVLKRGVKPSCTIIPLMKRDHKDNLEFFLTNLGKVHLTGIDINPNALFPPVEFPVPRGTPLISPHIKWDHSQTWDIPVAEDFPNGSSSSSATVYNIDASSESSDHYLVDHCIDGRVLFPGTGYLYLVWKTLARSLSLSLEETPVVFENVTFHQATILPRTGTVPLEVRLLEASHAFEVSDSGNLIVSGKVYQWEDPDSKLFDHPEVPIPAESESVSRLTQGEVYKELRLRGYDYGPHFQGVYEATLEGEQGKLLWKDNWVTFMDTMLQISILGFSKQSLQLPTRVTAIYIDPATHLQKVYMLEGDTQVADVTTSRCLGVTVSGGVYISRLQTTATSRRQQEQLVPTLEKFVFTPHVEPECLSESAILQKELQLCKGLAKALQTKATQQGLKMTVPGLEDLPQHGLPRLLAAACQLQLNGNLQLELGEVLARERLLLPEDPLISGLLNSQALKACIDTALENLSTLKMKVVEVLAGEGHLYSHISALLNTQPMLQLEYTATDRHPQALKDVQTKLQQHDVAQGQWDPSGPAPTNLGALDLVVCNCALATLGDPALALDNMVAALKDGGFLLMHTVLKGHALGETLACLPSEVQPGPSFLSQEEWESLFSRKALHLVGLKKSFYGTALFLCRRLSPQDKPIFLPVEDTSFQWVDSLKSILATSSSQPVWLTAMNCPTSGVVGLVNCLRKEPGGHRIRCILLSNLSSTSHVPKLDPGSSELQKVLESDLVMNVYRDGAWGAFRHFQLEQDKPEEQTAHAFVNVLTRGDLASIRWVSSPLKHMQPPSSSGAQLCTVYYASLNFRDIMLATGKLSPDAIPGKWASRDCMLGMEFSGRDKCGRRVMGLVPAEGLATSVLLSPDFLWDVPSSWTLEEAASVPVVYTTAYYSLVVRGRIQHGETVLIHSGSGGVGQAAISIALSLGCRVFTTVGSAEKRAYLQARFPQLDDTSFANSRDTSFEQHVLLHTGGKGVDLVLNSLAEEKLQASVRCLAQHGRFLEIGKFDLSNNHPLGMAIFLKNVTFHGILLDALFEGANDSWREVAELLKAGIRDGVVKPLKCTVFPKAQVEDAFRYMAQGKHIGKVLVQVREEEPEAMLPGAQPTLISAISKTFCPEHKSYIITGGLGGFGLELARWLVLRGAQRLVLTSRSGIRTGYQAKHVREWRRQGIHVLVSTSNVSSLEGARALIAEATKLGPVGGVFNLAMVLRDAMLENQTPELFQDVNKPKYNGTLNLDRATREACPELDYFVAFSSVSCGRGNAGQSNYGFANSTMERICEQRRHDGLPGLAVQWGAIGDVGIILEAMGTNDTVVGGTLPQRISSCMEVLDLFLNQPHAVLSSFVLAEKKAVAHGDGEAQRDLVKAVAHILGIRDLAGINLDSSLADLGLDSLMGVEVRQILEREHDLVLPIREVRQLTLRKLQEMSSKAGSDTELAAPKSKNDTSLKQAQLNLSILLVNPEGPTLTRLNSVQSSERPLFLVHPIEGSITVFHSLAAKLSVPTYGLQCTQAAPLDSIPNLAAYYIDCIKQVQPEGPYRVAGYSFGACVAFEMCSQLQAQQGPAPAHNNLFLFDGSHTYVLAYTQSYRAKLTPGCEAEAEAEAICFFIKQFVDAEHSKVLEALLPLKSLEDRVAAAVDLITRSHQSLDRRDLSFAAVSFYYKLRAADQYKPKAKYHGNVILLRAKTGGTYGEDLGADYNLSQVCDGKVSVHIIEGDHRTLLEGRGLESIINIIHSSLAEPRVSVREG

Activity [2]: inactive
Activity [7]: 0.55 U/mg
Activity [9]: inactive
Activity [13]: 0.72 U/mg
SMILES: Cc1cn([C@H]2C[C@H](N=[N+]=[N-])[C@@H](CO)O2)c(=O)[nH]c1=O [ZIDOVUDINE]
Activity (Rattus norvegicus [1]): 0.27 mM
Activity (Rattus norvegicus [3]): 6.43 U/mg
Activity (Rattus norvegicus [4]): 0.43 mM
Activity (Rattus norvegicus [5]): 6.61 U/mg
Activity (Rattus norvegicus [6]): 2.11 mM
Activity (Rattus norvegicus [8]): 0.32 mM
Activity (Rattus norvegicus [10]): 625 µg
Activity (Rattus norvegicus [11]): Active
Activity (Rattus norvegicus [12]): Active
Activity (Rattus norvegicus [14]): 0.6 mM
Activity (Rattus norvegicus [15]): 2082 um2
Activity (Rattus norvegicus [16]): 1.96 mM
Activity (Rattus norvegicus [17]): 443 g
Activity (Rattus norvegicus [18]): inactive
Activity (Rattus norvegicus [19]): 401 g
